Each molecule was assayed against T1, KRas G12C (Homo sapiens, UniProt P01116, G12C) (assay: Inhibition of KRas G12C-dependent cell growth: Phospho-ERK in NCI-H358 cells). Settings: NCI-H358 cells expressing KRas G12C; Phospho-ERK (Thr202/Tyr204) normalized to GAPDH; 3 hours compound; 4 parameter fit.
T1 construct: NCI-H358 cells (ATCC CRL-5807) express KRas G12C
T1 sequence (P01116 1-188 isoform P01116-2 G12C): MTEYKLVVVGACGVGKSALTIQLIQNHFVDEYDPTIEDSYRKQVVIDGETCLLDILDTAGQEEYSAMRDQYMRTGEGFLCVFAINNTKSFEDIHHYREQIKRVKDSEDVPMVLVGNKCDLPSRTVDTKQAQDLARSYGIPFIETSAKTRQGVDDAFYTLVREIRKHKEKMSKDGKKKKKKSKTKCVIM
Assay type: cell-based
Summary of the method: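 NCI-H358 cells (KRas G12C) exposed to compounds for 3 h, 0.5% DMSO final. Fixed cells immunostained for pERK(Thr202/Tyr204) and GAPDH with infrared secondary antibodies. pERK normalized to GAPDH, expressed as percent of DMSO control; IC50 from 4-parameter dose-response fit.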
Molecule `C=C(F)C(=O)N1CCN(c2nc(OCCCN3C[C@@H]4C[C@H]3CO4)nc3c(F)c(-c4cccc5cccc(Cl)c45)ncc23)C[C@@H]1CC#N` [Example 29, 2-[(2S)-4-[7-(8-chloro-1-naphthyl)-8-fluoro-2-[3-[(1S,4S)-2-oxa-5-azabicyclo[2.2.1]heptan-5-yl]propoxy]pyrido[4,3-d]pyrimidin-4-yl]-1-(2-fluoroprop-2-enoyl)piperazin-2-yl]acetonitrile] has an IC50 of 85 nM. `C=CC(=O)N1CC[C@@H]2[C@H]1CN2c1nc(OC2COC2)nc2c(F)c(-c3cccc4ccc(F)c(Cl)c34)ncc12` [Example 265] gave an IC50 of 1490 nM. For `C=CC(=O)N1CCCC12CCN(c1ncnc3c(F)c(-c4cccc5ccc(F)c(Cl)c45)ncc13)C2` (centres unmarked) [Example 233], the IC50 was 10000 nM. `C=CC(=O)N1CCN(c2nc(OC[C@@H]3CCCN3C)nc3c(F)c(-c4ccccc4F)ncc23)C[C@@H]1CC#N` [Example 60, 2-[(2S)-4-[8-fluoro-7-(2-fluorophenyl)-2-[[(2S)-1-methylpyrrolidin-2-yl]methoxy]pyrido[4,3-d]pyrimidin-4-yl]-1-prop-2-enoyl-piperazin-2-yl]acetonitrile] showed an IC50 of 127 nM. `C=C(F)C(=O)N1CCN(c2nc(OCC34CCCN3CCC4)nc3c(F)c(-c4cccc(F)c4C(F)(F)F)ncc23)C[C@@H]1CC#N` [Example 101] showed an IC50 of 43 nM. Work on `C=CC(=O)N1CCN(c2nc(C)nc3c(F)c(-c4cc(O)cc5ccccc45)ncc23)CC1` [Example 206] yielded an IC50 of 1680 nM. In the case of `CN1CC(F)(F)C[C@H]1COc1nc(N2CCN(C(=O)/C=C/CF)[C@@H](CC#N)C2)c2cnc(-c3cccc4cccc(Cl)c34)c(F)c2n1` [Example 25, 2-((S)-4-(7-(8-chloronaphthalen-1-yl)-2-(((S)-4,4-difluoro-1-methylpyrrolidin-2-yl)methoxy)-8-fluoropyrido[4,3-d]pyrimidin-4-yl)-1-((E)-4-fluorobut-2-enoyl)piperazin-2-yl)acetonitrile], the IC50 is reported as 13 nM. Molecule `COC/C=C/C(=O)N1CC[C@@H]2[C@H]1CN2c1ncnc2c(F)c(-c3cccc4ccc(F)c(Cl)c34)ncc12` [Example 259] has an IC50 of 9000 nM. `C=C(F)C(=O)N1CCN(c2nc(OC[C@H]3C[C@@H](F)CN3C)nc3c(F)c(-c4cccc5ccc(F)c(Cl)c45)ncc23)C[C@@H]1CC#N` [Example 167] showed an IC50 of 60 nM. For `C#Cc1cccc2cccc(-c3ncc4c(N5CC[C@@H]6[C@H]5CN6C(=O)C=C)ncnc4c3F)c12` [Example 245, 1-((1R,5R)-2-(7-(8-ethynylnaphthalen-1-yl)-8-fluoropyrido[4,3-d]pyrimidin-4-yl)-2,6-diazabicyclo[3.2.0]heptan-6-yl)prop-2-en-1-one], the IC50 was 4040 nM. `C=CC(=O)N1CC2CC1CN2c1nc(OC[C@@H]2CCCN2C)nc2c(F)c(-c3cncc4cccc(Cl)c34)ncc12` (some centres unmarked) [Example 98] showed an IC50 of 10000 nM. In the case of `C=CC(=O)N1CCN(c2nc(C3CC3)nc3c(F)c(-c4cccc5ccc(F)c(Cl)c45)ncc23)C[C@@H]1CC#N` [Example 219, (S)-2-(1-acryloyl-4-(7-(8-chloro-7-fluoronaphthalen-1-yl)-2-cyclopropyl-8-fluoropyrido[4,3-d]pyrimidin-4-yl)piperazin-2-yl)acetonitrile], the IC50 is reported as 538 nM. In the case of `C=C(F)C(=O)N1CCN(c2nc(OCC34CCCN3CCC4)nc3c(F)c(-c4cccc5cccc(Cl)c45)ncc23)C[C@@H]1CC#N` [Example 77], the IC50 is reported as 2 nM. In the case of `C=CC(=O)N1CCN(c2ncnc3c(F)c(-c4cccc5ccc(F)cc45)ncc23)C[C@@H]1CC#N` [Example 197], the IC50 is reported as 165 nM. Work on `C=C(F)C(=O)N1CCN(c2nc(OC[C@H]3CCCN3C)nc3c(F)c(-c4cccc5cccc(Cl)c45)ncc23)C[C@@H]1CC#N` [Example 35, 2-[(2S)-4-[7-(8-chloro-1-naphthyl)-8-fluoro-2-[[(2R)-1-methylpyrrolidin-2-yl]methoxy]pyrido[4,3-d]pyrimidin-4-yl]-1-(2-fluoroprop-2-enoyl)piperazin-2-yl]acetonitrile] yielded an IC50 of 27 nM. With `C=CC(=O)N1CCN(c2nc(OC[C@@H]3CCCN3C)nc3c(F)c(-c4cncc5cccc(Cl)c45)ncc23)CC1` [Example 93] the IC50 was 366 nM. For `C=CC(=O)N1CC[C@@H]2[C@H]1CN2c1ncnc2c(F)c(-c3cccc4ccc(F)c(C)c34)ncc12` [Example 285], the IC50 was 782 nM. `C#Cc1c(F)ccc2cccc(-c3ncc4c(N5C[C@@H]6[C@H]5CCN6C(=O)/C=C/C(F)F)ncnc4c3F)c12` [Example 300, (E)-1-((1R,5R)-6-(7-(8-ethynyl-7-fluoronaphthalen-1-yl)-8-fluoropyrido[4,3-d]pyrimidin-4-yl)-2,6-diazabicyclo[3.2.0]heptan-2-yl)-4,4-difluorobut-2-en-1-one] showed an IC50 of 235 nM. `C=CC(=O)N1CCN(c2nc(C)nc3c(F)c(-c4cccc5ccc(F)c(Cl)c45)ncc23)C[C@@H]1CC#N` [Example 122] gave an IC50 of 32 nM. `C=C(F)C(=O)N1CCN(c2nc(OCC3(C)COC3)nc3c(F)c(-c4cccc5ccc(F)c(Cl)c45)ncc23)C[C@@H]1CC#N` [Example 154] showed an IC50 of 221 nM. `CO[C@@H]1C[C@@H](COc2nc(N3CCN(C(=O)/C=C/CF)[C@@H](CC#N)C3)c3cnc(-c4cncc5cccc(C)c45)c(F)c3n2)N(C)C1` [Example 36, 2-[(2S)-1-[(E)-4-fluorobut-2-enoyl]-4-[8-fluoro-2-[[(2S,4R)-4-methoxy-1-methyl-pyrrolidin-2-yl]methoxy]-7-(5-methyl-4-isoquinolyl)pyrido[4,3-d]pyrimidin-4-yl]piperazin-2-yl]acetonitrile] gave an IC50 of 44 nM. Work on `C=CC(=O)N1C2CCC1CN(c1ncnc3c(F)c(-c4cccc5ccc(F)c(Cl)c45)ncc13)C2` [Example 131] yielded an IC50 of 10000 nM. For `C=C(F)C(=O)N1CCN(c2nc(OC[C@@H]3CCCN3C)nc3c(OCC(F)(F)F)c(-c4cccc5cccc(C)c45)ncc23)C[C@@H]1CC#N` [Example 63, 2-((S)-1-(2-fluoroacryloyl)-4-(7-(8-methylnaphthalen-1-yl)-2-(((S)-1-methylpyrrolidin-2-yl)methoxy)-8-(2,2,2-trifluoroethoxy)pyrido[4,3-d]pyrimidin-4-yl)piperazin-2-yl)acetonitrile], the IC50 was 2850 nM. With `C=C(F)C(=O)N1CCN(c2nc(OC[C@@H]3CCCN3C)nc3c(F)c(-c4cccc5cccc(Cl)c45)ncc23)[C@@H](C)C1` [Example 75] the IC50 was 1190 nM. `C=C(F)C(=O)N1CCN(c2nc(OC[C@@H]3C[C@@H](OC)CN3C(C)C)nc3c(F)c(-c4cccc5ccc(F)c(Cl)c45)ncc23)C[C@@H]1CC#N` [Example 117] showed an IC50 of 18 nM. `COC/C=C/C(=O)N1CCN(c2nc(OC[C@@H]3C[C@@H](OC)CN3C)nc3c(F)c(-c4cccc5cccc(C)c45)ncc23)C[C@@H]1CC#N` [Example 57, 2-[(2S)-4-[8-fluoro-2-[[(2S,4R)-4-methoxy-1-methyl-pyrrolidin-2-yl]methoxy]-7-(8-methyl-1-naphthyl)pyrido[4,3-d]pyrimidin-4-yl]-1-[(E)-4-methoxybut-2-enoyl]piperazin-2-yl]acetonitrile] was tested, and the IC50 was 58 nM. `C=CC(=O)N1C[C@@H](C)N(c2ncnc3c(F)c(-c4cccc5ccc(F)c(Cl)c45)ncc23)[C@@H](C)C1` [Example 149] showed an IC50 of 10000 nM. Molecule `C=CC(=O)N1CCN(c2nc(C(F)(F)F)nc3c(F)c(-c4cccc5ccc(F)c(Cl)c45)ncc23)C[C@@H]1CC#N` [Example 199] has an IC50 of 3400 nM. `C=CC(=O)N1C[C@H]2[C@@H]1CCN2c1ncnc2c(F)c(-c3cccc4ccc(F)c(Cl)c34)ncc12` [Example 232] was tested, and the IC50 was 10000 nM.
